From PubChem BioAssay AID588562 (The Scripps Research Institute Molecular Screening Center, 2011)
Active and inactive are the calls of the source. How the calls were made is not given here.

Molecular target: Neuropeptides B/W receptor type 1 (Homo sapiens) (UniProt P48145)
Test: GPR7 receptor antagonists, late-stage follow-up, cell-based, fluorescence, percent inhibition (AID 588562)
Conditions: GPR7-expressing cells, fluorescence antagonist assay; at 20 µM; hits give high values

Neuropeptides B/W receptor type 1 (Homo sapiens), sequence (P48145 whole entry, looked up): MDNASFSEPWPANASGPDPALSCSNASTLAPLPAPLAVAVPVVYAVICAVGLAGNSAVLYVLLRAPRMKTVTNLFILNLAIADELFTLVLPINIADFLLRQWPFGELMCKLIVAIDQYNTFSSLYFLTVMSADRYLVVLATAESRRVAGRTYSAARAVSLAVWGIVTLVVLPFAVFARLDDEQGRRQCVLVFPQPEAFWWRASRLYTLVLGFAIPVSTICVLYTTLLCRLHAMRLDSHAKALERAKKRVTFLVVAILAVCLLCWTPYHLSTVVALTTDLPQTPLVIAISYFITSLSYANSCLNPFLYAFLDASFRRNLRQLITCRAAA

Row | inhibition | Structure (SMILES)
1 | 15% (inactive) | COc1ccc(Oc2c(-n3nnc(C)c3C)cnn(-c3ccc(C(C)C)cc3)c2=O)cc1
2 | 7% (inactive) | COc1ccc(Oc2c(C(=O)N(C)C)cnn(-c3ccc(C(C)C)cc3)c2=O)cc1
3 | 46% (inactive) | CCOc1ccc(Oc2c(Cl)cnn(-c3ccc(C(C)C)cc3)c2=O)cc1
4 | -25% (inactive) | COc1ccc(Oc2c(N3CCN(C)CC3)cnn(-c3ccc(C(C)C)cc3)c2=O)cc1
5 | 37% (inactive) | COc1ccc(Oc2c(N3CCOCC3)cnn(-c3ccc(C(C)C)cc3)c2=O)cc1
6 | 24% (inactive) | COc1ccc(Oc2ccnn(-c3ccc(C)cc3)c2=O)cc1
7 | -18% (inactive) | CC(C)c1ccc(-n2ncc(NCc3ccccc3)c(Cl)c2=O)cc1
8 | 55% (inactive) | CC(C)c1ccc(-n2ncc(Cl)c(Oc3ccc(C(F)(F)F)cc3)c2=O)cc1
9 | 31% (inactive) | COc1ccc(Oc2c(N)cnn(-c3ccc(C(F)(F)F)cc3)c2=O)cc1
10 | -10% (inactive) | COc1ccc(Oc2c(N)cnn(-c3ccc(C(C)C)cc3)c2=O)cc1
11 | 15% (inactive) | COc1ccc(Oc2c(NC(C)=O)cnn(-c3ccc(C(C)C)cc3)c2=O)cc1
12 | -16% (inactive) | COc1ccc(Oc2c(C(=O)O)cnn(-c3ccc(C(C)C)cc3)c2=O)cc1
13 | 27% (inactive) | COc1ccc(COc2c(Cl)cnn(-c3ccc(C(C)C)cc3)c2=O)cc1
14 | 15% (inactive) | COc1ccc(Oc2c(N3CCN(C(=O)OC(C)(C)C)CC3)cnn(-c3ccc(C(C)C)cc3)c2=O)cc1
15 | -3% (inactive) | CC(C)c1ccc(-n2ncc(Cl)c(Oc3cc(C(C)(C)C)cc(C(C)(C)C)c3)c2=O)cc1
